From ChEMBL document CHEMBL1122184, “Synthesis and antileukemic activity of fluorinated analogues of 2,3-dihydro-5-phenyl-6,7-bis(hydroxymethyl)-1H-pyrrolizine biscarbamate” (J Med Chem, 1982)

How the values were obtained:
Mus musculus [1] = experiment: In vivo activity of compound was measured against P388 lymphocytic leukemia at the dose of 6.25 mg/kg.; format: functional
Mus musculus [2] = experiment: In vivo activity of compound was measured against P388 lymphocytic leukemia at the dose of 1.56 mg/kg.; format: functional
Mus musculus [3] = experiment: In vivo activity of compound was measured against P388 lymphocytic leukemia at the dose of 3.13 mg/kg.; format: functional
Mus musculus [4] = experiment: In vivo activity of compound was measured against P388 lymphocytic leukemia at the dose of 25 mg/kg; toxic; format: functional, organism-based; design: dose 25 mg/kg
Mus musculus [5] = experiment: In vivo activity of compound was measured against P388 lymphocytic leukemia at the dose of 50 mg/kg; toxic; format: functional, organism-based; design: dose 50 mg/kg
Mus musculus [6] = experiment: In vivo activity of compound was measured against P388 lymphocytic leukemia at the dose of 100 mg/kg; toxic; format: functional, organism-based; design: dose 100 mg/kg
Mus musculus [7] = experiment: In vivo activity of compound was measured against P388 lymphocytic leukemia at the dose of 200 mg/kg; toxic; format: functional, organism-based; design: dose 200 mg/kg
Mus musculus [8] = experiment: In vivo activity of compound was measured against P388 lymphocytic leukemia at the dose of 12.5 mg/kg.; format: functional
Mus musculus [9] = experiment: In vivo activity of compound was measured against P388 lymphocytic leukemia at the dose of 0.78 mg/kg.; format: functional
Mus musculus [10] = experiment: In vivo activity of compound was measured against P388 lymphocytic leukemia at the dose of 50 mg/kg; format: functional
Mus musculus [11] = experiment: In vivo activity of compound was measured against P388 lymphocytic leukemia at the dose of 12.5 mg/kg; format: functional
Mus musculus [12] = experiment: In vivo activity of compound was measured against P388 lymphocytic leukemia at the dose of 6.25 mg/kg; format: functional
Mus musculus [13] = experiment: In vivo activity of compound was measured against P388 lymphocytic leukemia at the dose of 25 mg/kg; format: functional
Mus musculus [14] = experiment: In vivo activity of compound was measured against P388 lymphocytic leukemia at the dose of 25 mg/kg.; format: functional
Mus musculus [15] = experiment: In vivo activity of compound was measured against P388 lymphocytic leukemia at the dose of 50 mg/kg.; format: functional
Mus musculus [16] = experiment: In vivo activity of compound was measured against P388 lymphocytic leukemia at the dose of 100 mg/kg.; format: functional
Mus musculus [17] = experiment: In vivo activity of compound was measured against P388 lymphocytic leukemia at the dose of 0.78 mg/kg; toxic; format: ADME, organism-based; design: dose 0.78 mg/kg
Mus musculus [18] = experiment: In vivo activity of compound was measured against P388 lymphocytic leukemia at the dose of 0.76 mg/kg.; format: functional
Mus musculus [19] = experiment: In vivo activity of compound was measured against P388 lymphocytic leukemia at the dose of 100 mg/kg; format: functional

`CNC(=O)OCc1c(COC(=O)NC)c(-c2ccc(F)cc2)n2c1CCC2` showed a T/C (Mus musculus [1]) of 137%, a T/C (Mus musculus [2]) of 122% and a T/C (Mus musculus [3]) of 141%. For the same compound, the T/C (Mus musculus [4]) was “Toxic”, the T/C (Mus musculus [5]) was “Toxic” and the T/C (Mus musculus [6]) was “Toxic”. The T/C (Mus musculus [7]) was “Toxic”, the T/C (Mus musculus [8]) was 128% and the T/C (Mus musculus [9]) was 146%.

`CNC(=O)OCc1c(COC(=O)NC)c(-c2cc(F)ccc2F)n2c1CCC2` showed a T/C (Mus musculus [10]) of 73%, a T/C (Mus musculus [11]) of 151% and a T/C (Mus musculus [12]) of 147%. For the same compound, the T/C (Mus musculus [13]) was 156%, the T/C (Mus musculus [6]) was “Toxic” and the T/C (Mus musculus [7]) was “Toxic”.

For `CNC(=O)OCc1c(COC(=O)NC)c(-c2cccc(F)c2F)n2c1CCC2`, the T/C (Mus musculus [1]) was 131%, the T/C (Mus musculus [3]) was 134% and the T/C (Mus musculus [5]) was “Toxic”. For the same compound, the T/C (Mus musculus [6]) was “Toxic”, the T/C (Mus musculus [7]) was “Toxic” and the T/C (Mus musculus [8]) was 149%. The T/C (Mus musculus [14]) was 156%.

Compound `CC(C)NC(=O)OCc1c(COC(=O)NC(C)C)c(-c2ccc(F)c(F)c2)n2c1CCC2` has a T/C (Mus musculus [1]) of 160%, a T/C (Mus musculus [15]) of 92% and a T/C (Mus musculus [2]) of 126%. The T/C (Mus musculus [3]) was 151%, the T/C (Mus musculus [16]) was 70% and the T/C (Mus musculus [7]) was “Toxic”. The T/C (Mus musculus [8]) was 178%, the T/C (Mus musculus [17]) was “Toxic” and the T/C (Mus musculus [14]) was 123%.

Work on `CC(C)NC(=O)OCc1c(COC(=O)NC(C)C)c(-c2ccc(F)cc2F)n2c1CCC2` yielded a T/C (Mus musculus [1]) of 162%, a T/C (Mus musculus [2]) of 142% and a T/C (Mus musculus [3]) of 168%. For the same compound, the T/C (Mus musculus [5]) was “Toxic”, the T/C (Mus musculus [6]) was “Toxic” and the T/C (Mus musculus [7]) was “Toxic”. It also gave a T/C (Mus musculus [18]) of 135%, a T/C (Mus musculus [8]) of 180% and a T/C (Mus musculus [14]) of 99%.

`CC(C)NC(=O)OCc1c(COC(=O)NC(C)C)c(-c2ccc(Cl)c(Cl)c2)n2c1CCC2` showed a T/C (Mus musculus [10]) of 160%, a T/C (Mus musculus [1]) of 149% and a T/C (Mus musculus [2]) of 122%. The T/C (Mus musculus [3]) was 141%, the T/C (Mus musculus [19]) was 113% and the T/C (Mus musculus [7]) was “Toxic”. The T/C (Mus musculus [8]) was 177% and the T/C (Mus musculus [14]) was 226%.

`CNC(=O)OCc1c(COC(=O)NC)c(-c2c(F)cccc2F)n2c1CCC2` was tested, and the T/C (Mus musculus [1]) was 166%, the T/C (Mus musculus [3]) was 148% and the T/C (Mus musculus [5]) was “Toxic”. The T/C (Mus musculus [6]) was “Toxic”, the T/C (Mus musculus [7]) was “Toxic” and the T/C (Mus musculus [8]) was 148%. It also gave a T/C (Mus musculus [14]) of 88%.
